Measured values: paper PMC2362731, “Phase I study of Carzelesin (U-80,244) given (4-weekly) by intravenous bolus schedule” (British Journal of Cancer, 1999)

What was measured:
[1] = Plasma pharmacokinetics of Carzelesin and metabolites by HPLC, first course; assay type: in vivo, human
Experimental: Carzelesin is a cyclopropylpyrroloindole analogue which acts as a DNA-sequence-specific alkylating agent. In this phase I study, Carzelesin was given as a 4-weekly 10 min IV infusion to 51 patients with advanced solid tumours. Patients received a median of two courses (range 1–5) at one of nine dose levels: 24, 48, 96, 130, 150, 170, 210, 250 and 300 μg m^−2. According to NCI-CTC criteria, non-haematological toxicities (grade 1/2) included fever, nausea and vomiting, mucositis and anorexia, none of which was clearly dose related. The dose-limiting toxicity was haematological and consisted mainly of neutropenia and to a lesser extent thrombocytopenia. From the dose level 150 μg m^−2, the haematological toxicity (particularly thrombocytopenia) was delayed in onset, prolonged and cumulative in some patients. In several courses, double WBC nadirs occurred. The maximum tolerated dose for a single course was 300 μg m^−2. From the dose level 170 μg m^−2, the intended dose intensity could not be delivered to most patients receiving > 2 courses owing to cumulative haematological toxicity. The dose level with the best dose intensity for multiple courses was 150 μg m^−2. The pharmacokinetics of Carzelesin and its metabolites (U-76,073; U-76,074) have been established in 31 patients during the first course of treatment using a HPLC method. […] The concentration of U-76,074 (active metabolite) extended above the lower limit of quantitation (1 ng ml^−1) for short periods of time and only at the higher dose levels. There was no relationship between neutropenia and the AUC of the prodrug Carzelesin, but the presence of detectable plasma levels of the active metabolite U-76,074 was usually associated with a substantial decrease in ANC values. © 1999 Cancer Research Campaign
Carzelesin (U-80,244, Figure 1A) is a cyclopropylpyrroloindole (CPI) prodrug analogue of CC-1065. […] CPI drugs are a class of compounds with unique DNA interactive properties. These agents fit into the minor groove region of DNA, and the CPI function in the molecule mediates a covalent binding to the N3 position of adenine in A-T rich regions, thus forming DNA adducts in a sequence selective fashion (Hurley et al, 1984; Reynolds et al, 1985). Three new CPIs have now been developed. […] Bizelesin differs from the classical CPI drugs in that it contains two chloromethyl functions, which are both converted (via intramolecular rearrangements) to the CPI alkyl- ating species that interact with DNA. Consequently, this agent is capable of forming DNA interstrand cross-links (Lee et al, 1991). […] Therefore, efforts were directed to modu- late the alkylation rate by the preparation of CPI prodrugs that would require chemical or enzymatic conversion. The activation of Carzelesin is a two-step reaction with hydrolysis of the phenyl- urethane substituent to form the intermediate compound U-76,073, followed by ring closure to form the active product U-76,074 (Figure 1B). […] This higher efficacy may be related to the pharmacologic features of the compound. […] Phase I study of Carzelesin (U-80,244) given (4-weekly) by intravenous bolus schedule A Awada1, CJA Punt2, MJ Piccart1, O Van Tellingen3, L Van Manen2, J Kerger1, Y Groot4, J Wanders4, J Verweij5 and DJTh Wagener2 1Institut Jules Bordet, Bd de Waterloo 125, 1000 Brussels, Belgium; 2University Hospital, Geert Grooteplein 8, Box 9101, 6500 HB Nijmegen, The Netherlands; 3The Netherlands Cancer Institute (Antoni van Leeuwenhoek Huis), Plesmanlaan 121, 1066 CX Amsterdam, The Netherlands; 4European Organization for Research and Treatment of Cancer - New Drug Development Office, PO Box 7057, Amsterdam, The Netherlands; 5Rotterdam Cancer Institute, Groene Hilledijk 301, 3075 EA Rotterdam, The Netherlands; on behalf of the EORTC Early Clinical Studies Group and EORTC NDDO Summary Carzelesin is a cyclopropylpyrroloindole analogue which acts as a DNA-sequence-specific alkylating agent. […]

[2] = tested on: bone marrow, kidney, liver and spleen; set-up: method as in EORTC-NDDO, 1992; conditions: ref EORTC-NDDO, 1992; cited from earlier work

CCN(CC)c1ccc2cc(C(=O)Nc3ccc4[nH]c(C(=O)N5C[C@@H](CCl)c6c5cc(OC(=O)Nc5ccccc5)c5[nH]cc(C)c65)cc4c3)oc2c1 [Carzelesin]
time after drug administration until plasma level dropped below 1 ng ml-1 ([1]; dose level 24): ≤ 1 h | peak plasma concentration ([1]; dose level 24, also reported in Van Tellingen et al, 1998): about 10 ng ml-1 | mean peak plasma level ([1]; highest dose level 300): 63 ng/mL | pharmacokinetic behaviour (dose vs plasma AUC) ([1]; in vivo): linear pharmacokinetics | organs in which toxicity occurred in preclinical studies [2]: bone marrow, kidney, liver and spleen
